The term IC50 denotes the concentration needed to halve the response being measured. One may read the Ki as a measure of affinity in units of concentration, obtained from inhibition or displacement.

The values below come from publication PMC4412257, “2′,6′-Dimethylphenylalanine: A Useful Aromatic Amino Acid Surrogate for Tyr or Phe Residue in Opioid Peptides” (International Journal of Medicinal Chemistry, 2012).

Like-named read-outs stand apart in the source and are kept apart here. No end group written: not given here. A value given as a limit tells only on which side of the number the result lay.

On the set-up of series [1]: method as in PMID 16321540. The settings on record: determined by HPLC; cited from earlier work.
In series [2] the target is human ORL1 receptor. Also on record: method as in PMID 16321540. The settings on record: read-out: IC50 ± SEM, ORL1 receptor, [3H]NOC; cell membrane expressing human ORL1 receptor in Hek-293 cells; cited from earlier work.
The subject of series [3] is guinea pig ileum (GPI). Also on record: method as in PMID 16321540. The settings on record: cited from earlier work; for IC50: DYN analogs, read-out: GPI assay IC50 ± SEM; for Ke value of receptor selective antagonist CTAP (μ) / Ke value of receptor selective antagonist nor-BNI (κ) / Ke value of receptor selective antagonist N,N(Me)2Dmt-Tic-OH (δ): GPI assay, antagonist against the peptide.

Series [4] concerns Aminopeptidase M. Also on record: method as in PMID 16321540. The settings on record: determined by HPLC; cited from earlier work.
In series [5] the target is μ-opioid receptor. The settings on record: cited from earlier work; for IC50: rat brain homogenate, read-out: IC50 ± SEM, opioid receptor, [3H]DAMGO (μ); for Ki: versus [3H]DAMGO, read-out: Receptor binding affinity, Ki ± S.E., μ.
Series [6] has as its target δ-opioid receptor. The settings on record: cited from earlier work; for IC50: rat brain homogenate, read-out: IC50 ± SEM, opioid receptor, [3H]DT (δ); for Ki: versus [3H]DT, read-out: Receptor binding affinity, Ki ± S.E., δ.
Series [7] addresses κ-opioid receptor. Set-up: method as in PMID 16321540. The settings on record: guinea pig brain homogenate; read-out: IC50 ± SEM, opioid receptor, [3H]U-69593 (κ); cited from earlier work.
Series [8] has as its system mice. Set-up: method as in PMID 12657261. The settings on record: formalin test in mice, subcutaneous injection, cited from earlier work.
The subject of series [9] is GPI (μ): guinea pig ileum, predominantly μ-receptors. The series can be described thus: isolated guinea pig ileum (GPI) assay. The settings on record: ratio of IC50 values. The series is classed as cell-based. The procedure: (§1) The receptor-binding affinities of synthetic analogs were determined using rat brain, as previously reported. […] The GPI tissue contains predominantly μ-receptors, while MVD tissue contains δ-receptors. […] In contrast, 11 was devoid of activity in both assays, as expected from the binding data. […] This analog turned out to be a potent μ-antagonist and a weak δ-antagonist. […] The results of 13 are in line with observations that Dmt-D-Phe-NH2 and its C-terminally extended analog are μ-receptor antagonists.

For series [10] the test system is unchanged. The settings on record: cited from earlier work; for Ke of CTAP against the peptide, GPI: antagonist CTAP (μ), GPI assay.
Series [11] relates to μ-opioid receptor. The series can be described thus: μ-opioid receptor binding, brain homogenate, versus [3H]DAMGO. The settings on record: ratio of Ki values. Set-up: species or system rat. The protocol:
as §1
Two methyl groups on Dmp^4 may interfere with the receptor interaction due to a reduction in conformational flexibility and/or enhanced lipophilicity. To further examine the usefulness of Dmp-containing DYN peptides as κ-opioid receptor ligands, the in vitro bioactivity of DYN peptides was determined using the GPI assay (Table 5).

For series [12], the target named is MVD (δ): mouse vas deferens, δ-receptors. The settings on record: cited from earlier work; for Ke of CTAP against the peptide, MVD: antagonist CTAP (μ); for Ke of CTAP against the peptide, MVD / Ke of N,N(Me)2Dmt-Tic-OH against the peptide, MVD: MVD assay; for Ke of N,N(Me)2Dmt-Tic-OH against the peptide, MVD: antagonist N,N(Me)2Dmt-Tic-OH (δ).
Series [13] has as its system δ-opioid receptor. The series can be described thus: δ-opioid receptor binding, brain homogenate, versus [3H]DT. Set-up: species or system rat. The settings on record: ratio of Ki values.
Experimental: The receptor-binding affinities of synthetic analogs were determined using rat brain, as previously reported [45].
The subject of series [14] is MVD (δ): mouse vas deferens, δ-receptors. The series is described as follows: isolated mouse vas deferens (MVD) assay. Type of series: cell-based. The settings on record: ratio of IC50 values. The protocol: as §1

Turning to “DYN(1-13)-NH2 (YGGFLRRIRPKLK-NH2; UniProt P01213 207-219, looked up, fragment) [parent peptide, dynorphin A (1-13) amide, reference compound]”, the “Half-life time, Rat brain homogenate” value in series [1] is 435 min. Further, the IC50 in series [2] is 18.8 ± 3.01 nM; in series [3], 3.14 ± 1.13 nM. The “Half-life time, Aminopeptidase M” value in series [4] was 15.5 min.

Met-enkephalin [reference compound]: in [1], the “Half-life time, Rat brain homogenate” value is recorded as 8.5 min. Also, in series [4], the “Half-life time, Aminopeptidase M” value was less than 5 min.

Turning to [Dmp^4]NOC(1-13)-NH2 [compound 29], the “Half-life time, Rat brain homogenate” value in series [1] is listed as 33.6 min. The IC50 in series [2] is 51.6 ± 12.9 nM; in series [5] it was 629 ± 433 nM; in series [6] it was more than 10000 nM; in series [7], 299 ± 63 nM.

For [Dmp^1,4]DYN(1-13)-NH2 [compound 28], the “Half-life time, Rat brain homogenate” value in series [1] is on record as 770 min. Besides, the IC50 is 51.5 ± 1.62 nM in series [2]; 1340 ± 303 nM in series [3]; 251 ± 56.3 nM in [5]; 415 ± 185 nM in series [6]; 5.45 ± 1.65 nM in series [7]. In series [3], the “Ke value of receptor selective antagonist CTAP (μ)” value was 595 nM. In addition, in series [3], the “Ke value of receptor selective antagonist nor-BNI (κ)” value is recorded as 809 nM.

`CN1CC[C@]23c4c5ccc(O)c4O[C@H]2[C@@H](O)C=C[C@H]3[C@H]1C5` [Morphine, reference compound]: in series [8], the “ED50, First phase” value was 3811 nmol/kg and the “ED50, Second phase” value was 7319 nmol/kg.

Consider [Dmp^4]DYN(1-13)-NH2 [compound 26], for which the “Half-life time, Rat brain homogenate” value in series [1] was 315 min. Also, the IC50 in series [2] is 188 ± 18.2 nM; in series [3], 32.2 ± 9.16 nM; in series [5], 22.4 ± 10.2 nM; in series [6], 931 ± 723 nM; in series [7], 0.044 ± 0.035 nM. The “Ke value of receptor selective antagonist CTAP (μ)” value in series [3] is reported as 108 nM. The “Ke value of receptor selective antagonist N,N(Me)2Dmt-Tic-OH (δ)” value in [3] is reported as 198 nM. Besides, the “Ke value of receptor selective antagonist nor-BNI (κ)” value in series [3] is on record as 0.63 nM.

For “Phe-Gly-Gly-Phe-Thr-Gly-Ala-Arg-Lys-Ser-Ala-Arg-Lys-Leu-Ala-Asn-Gln [NOC, reference compound]”, the IC50 in series [5] was 1540 ± 601 nM; in [6], more than 10000 nM; in [7] it was 643 ± 218 nM.

For [Dmp^1]DYN(1-13)-NH2 [compound 27], the “Half-life time, Rat brain homogenate” value in series [1] is given as 577 min. In series [2], the IC50 was 6.6 ± 0.952 nM. In series [3], the IC50 is 306 ± 68 nM, the “Ke value of receptor selective antagonist CTAP (μ)” value was 115 nM, the “Ke value of receptor selective antagonist N,N(Me)2Dmt-Tic-OH (δ)” value is given as more than 1000 nM and the “Ke value of receptor selective antagonist nor-BNI (κ)” value is 10 nM. In series [5], the IC50 is 16.4 ± 2.35 nM. Further, the IC50 in series [6] is 10.1 ± 6.02 nM. Moreover, the “Half-life time, Aminopeptidase M” value in [4] is listed as more than 30 min.

Turning to [Dmp^1,4]NOC(1-13)-NH2 [compound 31], the “Half-life time, Rat brain homogenate” value in [1] is 27.1 min. Also, the IC50 was 21.3 ± 3.2 nM in series [2], 56.8 ± 12.3 nM in series [5], 3410 ± 990 nM in series [6] and 100 ± 29 nM in series [7].

As to [Dmp^1]YRFB [compound 24], in series [8], the “ED50, First phase” value is reported as 1946 nmol/kg and the “ED50, Second phase” value is 1529 nmol/kg. The MVD/GPI in series [9] (Table 6) worked out at 19. Also, the IC50 in series [10] (Table 6) was 9.88 ± 1.04 nM. For the same compound, the “Ke of CTAP against the peptide, GPI” value in series [10] is listed as 25.1 nM. The δ/μ in series [11] (Table 6) stood at 41284. The Ki in series [5] (Table 6) was 0.0623 ± 0.014 nM. Besides, the Ki in series [6] (Table 6) was 2570 ± 947 nM. In addition, the IC50 in [12] (Table 6) is 188 ± 52 nM. In addition, in [12], the “Ke of CTAP against the peptide, MVD” value is recorded as 13.4 nM and the “Ke of N,N(Me)2Dmt-Tic-OH against the peptide, MVD” value (shortened to “Ke of N,N(Me)2Dmt-Tic-OH”) is recorded as more than 1000 nM.

Turning to [Dmp^3]YRFB [compound 22], in series [8], the “ED50, First phase” value is 98.6 nmol/kg and the “ED50, Second phase” value is reported as 113 nmol/kg. Also, the MVD/GPI in series [9] (Table 1) was 16.7. In series [10] (Table 1), the IC50 was 1.67 ± 0.24 nM. Besides, in series [10], the “Ke of CTAP against the peptide, GPI” value is recorded as 22.7 nM. The δ/μ in series [11] (Table 1) amounted to 15543. Also, the Ki in series [5] (Table 1, rat brain) was 0.035 ± 0.0167 nM. In addition, in series [6] (Table 1, rat brain), the Ki was 544 ± 143 nM. For the same compound, the IC50 in series [12] (Table 1) is 27.9 ± 5 nM. In addition, in series [12], the “Ke of CTAP against the peptide, MVD” value was 11.4 nM and the “Ke of N,N(Me)2Dmt-Tic-OH” value was more than 1000 nM.

For [Dmp^1]NOC(1-13)-NH2 [compound 30], in series [1], the “Half-life time, Rat brain homogenate” value was 60.3 min. In addition, the IC50 in series [2] is 0.814 ± 0.09 nM; in series [5], 25 ± 6.5 nM; in series [6], 292 ± 61 nM; in series [7], 38.8 ± 16.7 nM. In addition, in series [4], the “Half-life time, Aminopeptidase M” value was 28 min.

Consider “Tyr-D-Ala-Phe-Glu-Val-Val-Gly-NH2 [DT, reference compound]”, for which, in series [13] (Table 1), the μ/δ worked out at 13894. The IC50 is 5440 ± 812 nM in series [10] (Table 1), 5440 ± 812 nM in series [10] (Table 6), 0.582 ± 0.029 nM in [12] (Table 1) and 0.582 ± 0.029 nM in [12] (Table 6). Also, the GPI/MVD in series [14] (Table 1) is reported as 9342. The Ki in series [5] (Table 1, rat brain) is 314 ± 53 nM; in [5] (Table 6), 314 ± 53 nM; in series [6] (Table 1, rat brain), 0.0226 ± 0.0077 nM; in [6] (Table 6) it was 0.0226 ± 0.0077 nM. Also, the “Ke of CTAP against the peptide, MVD” value in series [12] was more than 1000 nM. In series [12], the “Ke of N,N(Me)2Dmt-Tic-OH” value was 0.64 nM.

As to [Dmt^1]DT [compound 36], the μ/δ in [13] (Table 6) is on record as 21.8. Also, the results for the IC50 in series [10] (Table 6) and in series [12] (Table 6) were 88.4 ± 22.7 nM and 0.052 ± 0.007 nM, respectively. For the same compound, the GPI/MVD in series [14] (Table 6) is recorded as 1700. For the same compound, the Ki was 0.261 ± 0.06 nM in series [5] (Table 6) and 0.012 ± 0.002 nM in series [6] (Table 6).
